# Data taken from patent US20120034613A1, “Apparatus and Method for Testing Relationships Between Gene Expression and Physical Appearance of Skin” (NSE Products, Inc., priority 2010, published 2012).
# Test system: EpidermFT™ Skin Model (EFT-400) full thickness skin cultures
# Assay: Affymetrix GeneChip HG U133 Plus 2.0 microarray global gene expression, agent-exposed vs untreated skin cultures
# Format: cell-based, human
# Details: Salicin 0.5%, 24 hr
# [1] = 219471_at C13orf18 /// LOC728970
compound,measurement,setting,value
"OCc1ccccc1O[C@@H]1O[C@H](CO)[C@@H](O)[C@H](O)[C@H]1O [Salicin, 2-(Hydroxymethyl)phenyl β-D-glucospyranoside]",Direction,215997_s_at CUL4B,up
same,Fold change,215997_s_at CUL4B,2.138
same,Direction,217202_s_at GLUL,up
same,Fold change,217202_s_at GLUL,2.106
same,Direction,217739_s_at NAMPT,up
same,Fold change,217739_s_at NAMPT,2.155
same,Direction,218574_s_at LMCD1,up
same,Fold change,218574_s_at LMCD1,2.123
same,Direction,218665_at FZD4,up
same,Fold change,218665_at FZD4,2.078
same,Direction,218810_at ZC3H12A,up
same,Fold change,218810_at ZC3H12A,2.117
same,Direction,219054_at C5orf23,up
same,Fold change,219054_at C5orf23,2.096
same,Direction,219283_at C1GALT1C1,up
same,Fold change,219283_at C1GALT1C1,2.107
same,Direction,219284_at HSPBAP1,up
same,Fold change,219284_at HSPBAP1,2.08
same,Direction,[1],up
same,Fold change,[1],2.12
same,Direction,219558_at ATP13A3,up
same,Fold change,219558_at ATP13A3,2.138
same,Direction,219774_at CCDC93,up
same,Fold change,219774_at CCDC93,2.13
same,Direction,219790_s_at NPR3,up
same,Fold change,219790_s_at NPR3,2.115
same,Direction,220253_s_at LRP12,up
same,Fold change,220253_s_at LRP12,2.096
same,Direction,221586_s_at E2F5,up
same,Fold change,221586_s_at E2F5,2.079
same,Direction,221881_s_at CLIC4,up
same,Fold change,221881_s_at CLIC4,2.109
same,Direction,223758_s_at GTF2H2,up
same,Fold change,223758_s_at GTF2H2,2.138
same,Direction,224461_s_at AIFM2,up
same,Fold change,224461_s_at AIFM2,2.132
same,Direction,224583_at COTL1,up
same,Fold change,224583_at COTL1,2.077
same,Direction,224978_s_at USP36,up
same,Fold change,224978_s_at USP36,2.122
same,Direction,225034_at ST3GAL1,up
same,Fold change,225034_at ST3GAL1,2.099
same,Direction,225185_at MRAS,up
same,Fold change,225185_at MRAS,2.155
same,Direction,225212_at SLC25A25,up
same,Fold change,225212_at SLC25A25,2.108
same,Direction,225436_at FAM108C1,up
same,Fold change,225436_at FAM108C1,2.142
same,Direction,225590_at SH3RF1,up
same,Fold change,225590_at SH3RF1,2.104
same,Direction,225871_at STEAP2,up
same,Fold change,225871_at STEAP2,2.153
same,Direction,226136_at GLIPR1,up
same,Fold change,226136_at GLIPR1,2.104
same,Direction,226142_at GLIPR1,up
same,Fold change,226142_at GLIPR1,2.129
same,Direction,226160_at H6PD,up
same,Fold change,226160_at H6PD,2.103
same,Direction,226731_at PELO,up
same,Fold change,226731_at PELO,2.098
same,Direction,226800_at EFCAB7,up
same,Fold change,226800_at EFCAB7,2.156
same,Direction,228082_at ASAM,up
same,Fold change,228082_at ASAM,2.108
same,Direction,228702_at FLJ43663,up
same,Fold change,228702_at FLJ43663,2.156
same,Direction,228949_at GPR177,up
same,Fold change,228949_at GPR177,2.105
same,Direction,228950_s_at GPR177,up
same,Fold change,228950_s_at GPR177,2.126
same,Direction,229194_at PCGF5,up
same,Fold change,229194_at PCGF5,2.107
same,Direction,229306_at FAM148B,up
same,Fold change,229306_at FAM148B,2.129
same,Direction,229414_at PITPNC1,up
same,Fold change,229414_at PITPNC1,2.108
same,Direction,229553_at PGM2L1,up
same,Fold change,229553_at PGM2L1,2.113
same,Direction,229623_at FLJ12993,up
same,Fold change,229623_at FLJ12993,2.132
same,Direction,230291_s_at NFIB,up
same,Fold change,230291_s_at NFIB,2.15
same,Direction,232004_at HNRNPR,up
same,Fold change,232004_at HNRNPR,2.126
same,Direction,232267_at GPR133,up
same,Fold change,232267_at GPR133,2.135
same,Direction,232311_at B2M,up
same,Fold change,232311_at B2M,2.121
same,Direction,235019_at CPM,up
same,Fold change,235019_at CPM,2.117
same,Direction,235182_at ISM1,up
same,Fold change,235182_at ISM1,2.138
same,Direction,235311_at FKBP14,up
same,Fold change,235311_at FKBP14,2.153
same,Direction,236154_at QKI,up
same,Fold change,236154_at QKI,2.103
same,Direction,238893_at LOC338758,up
same,Fold change,238893_at LOC338758,2.075
same,Direction,239108_at FAR2,up
same,Fold change,239108_at FAR2,2.081
same,Direction,239415_at MAP9,up
same,Fold change,239415_at MAP9,2.126
same,Direction,240395_at LOC100128727,up
same,Fold change,240395_at LOC100128727,2.078
same,Direction,241986_at BMPER,up
same,Fold change,241986_at BMPER,2.136
same,Direction,243631_at LOC727815,up
same,Fold change,243631_at LOC727815,2.087
same,Direction,243797_at STK17B,up
same,Fold change,243797_at STK17B,2.09
same,Direction,244752_at ZNF438,up
same,Fold change,244752_at ZNF438,2.083
same,Direction,1553962_s_at RHOB,up
same,Fold change,1553962_s_at RHOB,2.094
